Assay results from ChEMBL document CHEMBL4270520, “From hit to lead: Structure-based discovery of naphthalene-1-sulfonamide derivatives as potent and selective inhibitors of fatty acid binding protein 4” (Eur J Med Chem, 2018).
One block for each molecule: values may come before it.

Key:
[1] = target: T1, Fatty acid-binding protein, adipocyte (Homo sapiens, UniProt P15090)
Description: Displacement of 1,8-ANS from FABP4 (unknown origin) after 3 mins by fluorescence assay

[2] = target: Fatty acid-binding protein, heart (Homo sapiens, UniProt P05413); assay: Inhibition of FABP3 (unknown origin)
Sequence of Fatty acid-binding protein, heart (P05413 whole entry): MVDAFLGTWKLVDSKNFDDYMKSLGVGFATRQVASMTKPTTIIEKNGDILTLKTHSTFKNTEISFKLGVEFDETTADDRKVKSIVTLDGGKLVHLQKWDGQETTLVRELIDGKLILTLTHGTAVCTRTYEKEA

in vitro = conditions: mouse, plasma
Description: Protein binding in mouse plasma at 1 uM after 16 hrs by LC-MS/MS analysis

3T3-L1 = assay: Cytotoxicity against mouse 3T3L1 pre-adipocytes assessed as effect on cell viability up to 80 uM after 24 hrs by MTT assay; format: cell-based; conditions: 3t3-l1, 24 h
Mus musculus [3] = assay: Effect on total cholesterol levels in C57BL/Ksj db/db mouse at 100 mg/kg, po administered once daily via lavage for 2 to 4 weeks; format: ADME, organism-based; conditions: in vivo
[4] = Stability in human liver microsomes assessed as parent compound remaining at 0.1 uM after 60 mins by HPLC-MS/MS analysis; format: ADME, microsome; conditions: read-out: Stability
[5] = Half life in mouse liver microsomes at 0.1 uM by HPLC-MS/MS analysis; format: ADME, microsome
Mus musculus [6] = assay: Toxicity in C57BL/Ksj db/db mouse assessed as effect on abdominal adipose tissue lipid content at 100 mg/kg, po administered once daily via lavage for 5 weeks measured daily during compound dosing; format: organism-based; conditions: in vivo, 840 h
[7] = Half life in human liver microsomes at 0.1 uM by HPLC-MS/MS analysis; format: ADME, microsome
Mus musculus [8] = assay: Toxicity in C57BL/Ksj db/db mouse assessed as body weight loss at 100 mg/kg, po administered once daily via lavage for 5 weeks measured daily during compound dosing; format: organism-based; conditions: in vivo, 840 h
Mus musculus [9] = assay: Renal toxicity in C57BL/Ksj db/db mouse at 100 mg/kg, po administered once daily via lavage for 5 weeks measured daily during compound dosing; format: organism-based; conditions: in vivo, 840 h
[10] = Stability in mouse liver microsomes assessed as parent compound remaining at 0.1 uM after 60 mins by HPLC-MS/MS analysis; format: ADME, microsome; conditions: read-out: Stability
Mus musculus [11] = assay: Antidiabetic activity in C57BL/Ksj db/db mouse assessed as reduction in fasting blood glucose level at 100 mg/kg, po administered once daily via lavage for 14 to 35 days relative to control; format: functional; set-up: scale not given: the % may be the effect or the level left
[12] = Stability in rat liver microsomes assessed as parent compound remaining at 0.1 uM after 60 mins by HPLC-MS/MS analysis; format: ADME, microsome; conditions: read-out: Stability
[13] = Half life in rat liver microsomes at 0.1 uM by HPLC-MS/MS analysis; format: ADME, microsome
Mus musculus [14] = assay: Toxicity in C57BL/Ksj db/db mouse assessed as effect on pancreas at 100 mg/kg, po administered once daily via lavage for 5 weeks measured daily during compound dosing; format: organism-based; conditions: in vivo, 840 h
[15] = Intrinsic clearance in mouse liver microsomes assessed per gram of protein at 0.1 uM by HPLC-MS/MS analysis; format: ADME, microsome
Mus musculus [16] = assay: Hepatotoxicity in C57BL/Ksj db/db mouse at 100 mg/kg, po administered once daily via lavage for 5 weeks measured daily during compound dosing; format: toxicity, organism-based; conditions: in vivo, 840 h
[17] = Intrinsic clearance in rat liver microsomes assessed per gram of protein at 0.1 uM by HPLC-MS/MS analysis; format: ADME, microsome
[18] = Intrinsic clearance in human liver microsomes assessed per gram of protein at 0.1 uM by HPLC-MS/MS analysis; format: ADME, microsome
[19] = target: T1, Fatty acid-binding protein, adipocyte; assay: Binding affinity to FABP4 (unknown origin) by isothermal calorimetric titration method

T1 sequence (P15090 whole entry): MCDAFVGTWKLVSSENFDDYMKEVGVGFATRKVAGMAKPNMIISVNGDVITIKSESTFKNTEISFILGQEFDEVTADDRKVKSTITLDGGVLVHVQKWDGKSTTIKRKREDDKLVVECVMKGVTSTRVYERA

Ki [1]: 930 nM
Compound: COc1ccc(S(=O)(=O)Nc2cc(C(=O)O)ccc2Cl)c2ccccc12

Ki [1]: > 6140 nM
Compound: COc1ccc(S(=O)(=O)Nc2cncc(C(=O)O)c2)c2ccccc12

Ki [1]: 1160 nM
Compound: O=C(O)CCCCNS(=O)(=O)c1ccc(Br)c2ccccc12

Ki [1]: 1150 nM
Compound: COc1ccc(S(=O)(=O)Nc2cc(F)cc(C(=O)O)c2)c2ccccc12

IC50 [1]: 3220 nM
Ki [1]: 400 nM
IC50 [2]: > 100000 nM
Compound: COc1ccc(S(=O)(=O)Nc2cccc(C(=O)O)c2)c2ccccc12

Ki [1]: 2120 nM
Compound: COc1ccc(S(=O)(=O)NCc2cccc(C(=O)O)c2)c2ccccc12

Ki [1]: 4320 nM
Compound: O=C(O)CCCNC(=O)c1cc(Cl)cc(Cl)c1

Ki [1]: 7380 nM
Compound: COc1ccc(S(=O)(=O)Nc2ccc(F)c(C(=O)O)c2F)c2ccccc12

Ki [1]: 840 nM
Compound: COc1ccc(S(=O)(=O)Nc2cccc(CC(=O)O)c2)c2ccccc12

Ki [1]: 1190 nM
Compound: O=C(O)CCCCNS(=O)(=O)c1cc(Cl)cc(Cl)c1

Ki [1]: 2550 nM
Compound: O=C(O)CCCNS(=O)(=O)c1cc(Cl)cc(Cl)c1

Ki [1]: > 6140 nM
Compound: COc1ccc(S(=O)(=O)Nc2cc(C(=O)O)ccn2)c2ccccc12

Ki [1]: 820 nM
Compound: COc1ccc(S(=O)(=O)Nc2cc(Cl)cc(C(=O)O)c2)c2ccccc12

Ki [1]: 4840 nM
Compound: O=C(O)CCCCCNS(=O)(=O)c1cc(Cl)cc(Cl)c1

Ki [1]: 2760 nM
Compound: COc1ccc(S(=O)(=O)Nc2cc(C(=O)O)ccc2C)c2ccccc12

fraction unbound at 16 h, 1 µM (in vitro): 0.109
Compound: CC(C)NCC(O)COc1cccc2ccccc12 (configuration not stated) [PROPRANOLOL]

Ki [1]: > 6140 nM
Compound: COc1ccc(S(=O)(=O)Nc2ccc(C)c(C(=O)O)c2)c2ccccc12

Ki [1]: 1850 nM
Compound: O=C(O)CCCCNS(=O)(=O)c1ccc(Cl)c2ccccc12

Ki [1]: 6510 nM
Compound: O=C(O)CCNS(=O)(=O)c1cc(Cl)cc(Cl)c1

Ki [1]: > 6140 nM
Compound: COc1ccc(S(=O)(=O)NC(C)c2cccc(C(=O)O)c2)c2ccccc12 (configuration not stated)

Ki [1]: 910 nM
Compound: Cc1c(C)c(C)c(S(=O)(=O)NCCCCC(=O)O)c(C)c1C

Ki [1]: 580 nM
Compound: COc1ccc(S(=O)(=O)Nc2cccc(CCC(=O)O)c2)c2ccccc12

Ki [1]: 2690 nM
Compound: Cc1cc(C)c(S(=O)(=O)NCCCCC(=O)O)c(C)c1

Ki [1]: > 6140 nM
Compound: COc1ccc(C(=O)O)cc1NS(=O)(=O)c1ccc(OC)c2ccccc12

fraction unbound at 16 h, 1 µM (in vitro): 0.0147
remaining at 1 h, 0.1 µM [4]: 72.3%
half-life at 0.1 µM [5]: 24.6 h
IC50 [1]: 1690 nM
Ki [1]: 210 nM
half-life at 0.1 µM [7]: 4.66 h
remaining at 1 h, 0.1 µM [10]: 96.9%
remaining at 1 h, 0.1 µM [12]: 93.4%
half-life at 0.1 µM [13]: 11.1 h
CLint [15]: 1.4 mL/min/g
IC50 [2]: > 100000 nM
CLint [17]: 3.15 mL/min/g
CLint [18]: 7.51 mL/min/g
Compound: COc1ccc(S(=O)(=O)Nc2ccc(F)c(C(=O)O)c2)c2ccccc12
Activity (3T3-L1): Non-Toxic
Activity (Mus musculus [3]): Non-Toxic
Activity (Mus musculus [6]): Non-Toxic
Activity (Mus musculus [8]): Non-Toxic
Activity (Mus musculus [9]): Non-Toxic
Activity (Mus musculus [11]): 20 - 35%
Activity (Mus musculus [14]): Non-Toxic
Activity (Mus musculus [16]): Non-Toxic

IC50 [1]: 1840 nM
Ki [1]: 230 nM
IC50 [2]: > 100000 nM
Compound: COc1ccc(S(=O)(=O)Nc2cc(C(=O)O)c(F)cc2F)c2ccccc12

Ki [1]: 1950 nM
Compound: Cc1cc(C)c(C)c(S(=O)(=O)NCCCCC(=O)O)c1C

Ki [1]: 760 nM
Compound: COc1ccc(S(=O)(=O)NCc2ccc(C(=O)O)cc2)c2ccccc12

Ki [1]: > 6140 nM
Compound: COc1ccc(S(=O)(=O)Nc2cccc(C(=O)O)c2C)c2ccccc12

Ki [1]: 2160 nM
Compound: O=C(O)CCCCNS(=O)(=O)c1ccc(F)c2ccccc12

Ki [1]: 1660 nM
Compound: O=C(O)CSCC(=O)Nc1cc(Cl)cc(Cl)c1

remaining at 1 h, 0.1 µM [4]: 73.6%
half-life at 0.1 µM [5]: 14.3 h
half-life at 0.1 µM [7]: 4.99 h
remaining at 1 h, 0.1 µM [10]: 94.8%
remaining at 1 h, 0.1 µM [12]: 93.9%
half-life at 0.1 µM [13]: 12.1 h
CLint [15]: 2.4 mL/min/g
IC50 [2]: > 100000 nM
CLint [17]: 2.9 mL/min/g
CLint [18]: 7.02 mL/min/g
Compound: COc1ccc(S(=O)(=O)Nc2cc(C(=O)O)ccc2F)c2ccccc12
Activity (3T3-L1): Non-Toxic
Activity (Mus musculus [3]): Non-Toxic
Activity (Mus musculus [6]): Non-Toxic
Activity (Mus musculus [8]): Non-Toxic
Activity (Mus musculus [9]): Non-Toxic
Activity (Mus musculus [11]): 20 - 35%
Activity (Mus musculus [14]): Non-Toxic
Activity (Mus musculus [16]): Non-Toxic

Ki [1]: 1670 nM
Compound: COc1ccc(S(=O)(=O)Nc2ccc(CC(=O)O)cc2)c2ccccc12

Ki [1]: 1280 nM
Compound: COc1ccc(S(=O)(=O)Nc2ccc(C(=O)O)cc2)c2ccccc12

Kd [19]: 6030 nM
Ki [1]: 7750 nM
Compound: COc1ccc(S(=O)(=O)Nc2cccc(C(=O)O)c2F)c2ccccc12
